From BindingDB's records for patent US20250059213 (Pretzel Therapeutics, 2025)

Molecular target: T1, Lon protease homolog, mitochondrial (Homo sapiens, UniProt P36776)
T1 sequence (P36776 whole entry): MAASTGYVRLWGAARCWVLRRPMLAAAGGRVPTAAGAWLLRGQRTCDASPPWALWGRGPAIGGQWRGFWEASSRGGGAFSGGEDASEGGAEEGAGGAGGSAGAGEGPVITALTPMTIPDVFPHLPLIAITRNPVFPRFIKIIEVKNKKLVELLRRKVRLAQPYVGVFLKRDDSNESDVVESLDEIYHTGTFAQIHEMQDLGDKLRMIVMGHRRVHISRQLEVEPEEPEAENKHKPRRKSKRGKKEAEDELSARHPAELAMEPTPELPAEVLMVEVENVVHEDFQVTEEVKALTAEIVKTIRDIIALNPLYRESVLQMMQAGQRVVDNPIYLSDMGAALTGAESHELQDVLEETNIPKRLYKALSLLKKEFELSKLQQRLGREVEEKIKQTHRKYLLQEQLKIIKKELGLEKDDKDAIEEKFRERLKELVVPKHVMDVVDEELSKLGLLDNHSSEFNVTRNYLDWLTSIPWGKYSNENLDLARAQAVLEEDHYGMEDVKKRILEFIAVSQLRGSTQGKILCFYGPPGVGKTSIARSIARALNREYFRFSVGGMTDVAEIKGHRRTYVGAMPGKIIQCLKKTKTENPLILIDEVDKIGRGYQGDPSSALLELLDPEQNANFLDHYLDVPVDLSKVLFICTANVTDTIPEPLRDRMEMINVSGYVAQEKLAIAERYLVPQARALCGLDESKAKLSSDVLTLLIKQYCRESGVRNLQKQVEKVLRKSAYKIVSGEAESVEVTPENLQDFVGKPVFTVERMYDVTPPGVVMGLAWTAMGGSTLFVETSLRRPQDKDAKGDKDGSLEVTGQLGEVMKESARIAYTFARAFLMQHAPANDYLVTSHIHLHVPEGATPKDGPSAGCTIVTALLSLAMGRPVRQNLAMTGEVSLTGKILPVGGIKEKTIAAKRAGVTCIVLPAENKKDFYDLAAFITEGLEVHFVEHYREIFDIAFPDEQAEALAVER
Assay: FRET-Based Assay
Description: The LONP1-containing mix (10 μL) was incubated with the test compound for 15 min at 37° C. before adding the peptide-containing mix (5 μL). Solutions were dispensed using a small cassette-Multidrop Combi (Thermo Scientific).

IC50: < 50 nM
Compound: COCC[C@@H](NC(=O)c1cnccn1)C(=O)N[C@@H](CCCc1ccccc1)B(O)O [US20250059213, Compound 13]
